pIC50: −log10 of the molar value.
Biological target: T1, human EDG-2 (Homo sapiens, UniProt Q92633)
T1 construct: expressed in transfected cells; host or cells: Chinese hamster ovary (CHO) cells
Assay: Evaluation of EDG-2 antagonistic activity by monitoring the change of intracellular calcium ion concentration
Assay type: cell-based
Details: CHO cells overexpressing human EDG-2 gene; LPA final concentration 100 nM; intracellular calcium ion concentration (Fura2-AM)
Experimental: A series of the procedure is based on the basic gene manipuration technique, that is gene overexpressed cells are prepared and a conventional method was utilized. The usual method of measurement was improved for getting enhancement of measurement precision and/or measurement sensitivity of the evaluation of compounds in the present invention. A detailed method of the experiment was shown in the following clause.
Evaluation of EDG-2 antagonistic activity by monitoring the change of intracellular calcium ion concentration
Evaluation of EDG-2 antagonistic activity was carried out by using Chinese hamster ovary (CHO) cells which overexpressed human EDG-2 gene. Those cells were cultured with Ham's F12 medium (GIBCO BRL company No. 11765-047) containing 10% FBS (fetal bovine serum), penicillin/streptomycin and blasticidin (5 μg/ml). At first in order to uptake Fura2-AM (Dojindo company No. 348-05831) into the cells, cells were incubated for 60 minutes at 37 degrees in Fura2-AM (5 μM) solution [Ham's F12 medium containing 10% FBS, 20 mM HEPES buffer (pH 7.4) and 2.5 mM probenecid (Sigma company No. P-8761)]. Next, it was washed with Hanks solution containing HEPES buffer (20 mM, pH 7.4) and probenecid (2.5 mM) once, and immersed into the Hanks solution. Plates were set in fluorescent drug screening system (Hamamatsu photonics company, FDSS-2000) and intracellular calcium ion concentration was measured for 30 seconds with no stimulation and then solution of the compound of the present invention of formula (I) was added. Five minutes after adding thereto LPA (final concentration: 100 nM) was added, the increase of intracellular calcium ion concentrations before and after the addition of LPA (excitation wave length: […]; fluorescent wave length: […]) were measured every 3 seconds. The compound of the present invention represented by the formula (I) was dissolved in dimethyl sulfoxide (DMSO), and it was added so that the final concentration became 1 nM to 10 μM. 1-oleoyl (18:1)-LPA (Sigma) or 1-linolenoyl (18:3)-LPA was used as LPA. […]

T1 sequence (Q92633 whole entry): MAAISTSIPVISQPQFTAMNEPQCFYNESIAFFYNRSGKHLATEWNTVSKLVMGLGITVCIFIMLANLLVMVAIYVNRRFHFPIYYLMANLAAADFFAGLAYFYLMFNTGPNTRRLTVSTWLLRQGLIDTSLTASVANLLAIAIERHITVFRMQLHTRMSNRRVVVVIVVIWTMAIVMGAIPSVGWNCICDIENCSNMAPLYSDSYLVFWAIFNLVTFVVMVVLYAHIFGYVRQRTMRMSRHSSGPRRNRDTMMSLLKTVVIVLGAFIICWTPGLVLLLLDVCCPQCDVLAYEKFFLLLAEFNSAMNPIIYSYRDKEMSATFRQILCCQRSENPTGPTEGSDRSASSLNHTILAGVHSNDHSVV

Row | Structure (SMILES) | pIC50
1 | COc1cc(C(=O)C(CCCc2ccccc2)Cc2ccc(Oc3ccccc3C(=O)O)cc2)cc(OC)c1OC (stereo not drawn) [8(1), 2-(4-(2-(3,4,5-trimethoxyphenylcarbonyl)-5-phenylpentyl)phenyloxy)benzoic acid] | 6.96
2 | COc1cc(C(=O)N(CCCc2ccccc2)Cc2ccc(CC(=O)O)cc2)cc(OC)c1C [Example 2(4), (4-(N-(3,5-dimethoxy-4-methylphenylcarbonyl)-N-(3-phenylpropyl)aminomethyl)phenyl)acetic acid] | 6.82
3 | COc1cc(OC)cc(C(=O)N(CCCc2ccccc2)Cc2ccc(Oc3ccccc3C(=O)O)cc2)c1 [3(33), 2-(4-(N-(3,5-dimethoxyphenylcarbonyl)-N-(3-phenylpropyl)aminomethyl)phenyloxy)benzoic acid] | 7.02
